Values of other authors as cited in patent publication US20040028740A1, “Steroid hormones as transfer agents” (priority 2000, published 2004).

[1] = daily doses of 200 mg and 300 mg

## CC(=O)[C@H]1CC[C@H]2[C@@H]3CCC4=CC(=O)CC[C@]4(C)[C@H]3CC[C@]12C [progesterone]
[1]
  effect on HDL-cholesterol levels: does not affect
  effect on liver enzymes (ASAT, ALAT, AFOS): does not affect
  effect on sex-hormone binding-globulin (SHBG) synthesis: does not affect
Orally administered
  effect on carbohydrate metabolism: adversely affects neither
  effect on plasma lipids: adversely affects neither
